Data as given in patent publication US20150157584A1, “INHIBITORS OF HIPPO-YAP SIGNALING PATHWAY” (The Regents of the University of California, priority 2012, published 2015).
Where two headings read alike, the source gives them in different places.

What was measured:
M14 melanoma xenograft = M14 melanoma xenograft in nude mice
Method: (§5) Cells grown to 90% confluence were harvested by trypsinization, washed in phosphate-buffered saline (PBS), and resuspended in PBS supplemented with 50% matrigel (BD Biosciences). Cells in 200 μL per injection site were administered. Nude mice (Nu-foxn1nu, Charles Rivers Laboratories) were injected on both flanks of the dorsolateral sites subcutaneously. C108 was formulated in 10% DMSO and 40% propylene glycol then administered at a dose of 100 mg/kg daily via tail-vein injection. Control mice received vehicle alone. The average tumor diameter (two perpendicular axes of the tumor were measured) was recorded. The data are expressed in tumor volume estimated by ([width]^2×length/2). Paired, two-tailed Student's t-test was performed to access the statistical significance.
In order to investigate the physiological impact of C108 on implanted tumor cell growth, in vivo xenograft models using M14 melanoma and EKVX adenocarcinoma in immune compromised mice were examined. Cancer cells mixed with 50% matrigel were injected subcutaneously, palpable tumors with approximately 5 mm in diameter across all injection sites were observed within 3 weeks. At that point, control group (6 mice) was tail-vein injected with the solvent consist of 10% DMSO and 40% propylene glycol while the treatment group (6 mice) received daily injection of C108 for three additional weeks. During the treatment period, tumor growth was monitored and final tumor weights were measured.

SK-Mel-28 melanoma = assay: cell migration assay, SK-Mel-28; type: cell-based, human
Method: (§1) Cell migration assay was performed using BD Falcon™ Cell culture inserts for 24-well plates with 22.0 μm pores filter, and the filter was pre-coated with […] Fibronectin. Cancer cells were serum-starved for 24 h and then seeded into the upper chamber of the insert in serum-free media, and lower chamber was filled with media containing 20% FBS with or without 2 μM C108. After 24 h, cells were fixed using 4% paraformaldehyde and stained using 0.05% crystal violet. Cells in upper chamber were carefully removed, and cells migrated through the filter were assessed by photography. For quantification, crystal violet was extracted and the absorbance at 560 nm was measured.

M14 Melanoma = assay: M14 melanoma cell proliferation (growth curve); type: cell-based, human
[1] = test system: EKVX adenocarcinoma xenograft; assay: EKVX adenocarcinoma xenograft in nude mice; type: in vivo, mouse; conditions: 100 mg/kg daily via tail-vein injection, three weeks
Method: as §5
In order to investigate the physiological impact of C108 on implanted tumor cell growth, in vivo xenograft models using M14 melanoma and EKVX adenocarcinoma in immune compromised mice were examined. Cancer cells mixed with 50% matrigel were injected subcutaneously, palpable tumors with approximately 5 mm in diameter across all injection sites were observed within 3 weeks. […] During the treatment period, tumor growth was monitored and final tumor weights were measured.

M14 = assay: transwell cell migration assay, M14; type: cell-based, human; conditions: 1, 2 and 3 μM C108
Method: as §1, with “Cancer cells were serum-starved for 24 h and then seeded into the upper chamber of the insert in serum-free media, and lower chamber was filled with media containing 20% FBS with or without 2 μM C108.” left out

YAP mRNA = YAP mRNA level by RT-PCR; type: cell-based, human; conditions: BOCs 293 cells; 3 μM; 12 and 24 hr
YAP [2] = assay: YAP ubiquitination (YAP immunoprecipitation, ubiquitin Western blot); type: cell-based, human; conditions: SF268 glioblastoma cells
EKVX adenocarcinoma = assay: cell migration assay, EKVX; type: cell-based, human
Method: as §1

M14 cells = assay: wound healing assay; type: cell-based, human; conditions: M14 melanoma; 24 hr scratch assay
Method: Control and […] treated cells were plated on fibronectin ([…]) coated 6 well plates in complete growth media. After overnight culture, wounds were made by manual scraping of the cell monolayer with a pipet tip. The dishes were washed, replenished with media in the presence or absence of […], and photographed under phase contrast microscope. They were then placed in the tissue culture incubator, and the matched wound regions were photographed every 6 hrs. Migration rate is quantified by traveling distance of leading cellular edge normalized to initial gap distance.

YAP [3] = type: cell-based, human
YAP [4] = conditions: mouse, in vivo, ip
Method: A protocol for epinephrine intraperitoneal (IP) injection in mice was approved by UCSD Institutional Animal Care and Use Committee. Fed male mice at 12 weeks of age were anesthetized. Control animals received an IP injection of propranolol (4 mg/100 g body weight) for 15 min. The test animals IP injected with epinephrine (75 μg/100 g body weight) for 15 min. […] The mice were sacrificed rapidly by cervical dislocation and the heart was harvested and immediately frozen in liquid nitrogen. Samples were stored at −80° C. until use. Frozen tissues were pulverized in liquid nitrogen. All of the subsequent steps were performed at 4° C. Powdered tissue samples were homogenized in 10 volumes (weight/volume) of buffer containing 50 mM Tris-HCl pH 7.6, 10 mM EDTA, 2 mM EGTA, 100 mM NaF, Protease inhibitor cocktail (1 mM Pefabloc, 1 mM benzamidine HCl, 1 μM leupeptin, and 1 μM E64), 1 mM PMSF, 0.2% Tritonx 100, 1 mM Na3VO4, 20 mM beta-glycerophosphate, 1 mM sodium pyrophosphate, and 50 nM calyculin A, using a tissue tearor. Homogenates were then centrifuged at 3,800 g for 10 min twice, and approximately 10 μg of protein, determined by Bradford, of the resultant supernatants were used for Western blot analysis.

YAP/TAZ = assay: immunoblotting / phos-tag gels of YAP/TAZ phosphorylation in cultured cell lines; type: cell-based, human
Method: Immunoblotting was performed using standard protocol. […] The phos-tag reagents were purchased from Wako Chemicals, and gels containing phos-tag were prepared according to manufacture's instructions. YAP proteins can be separated into multiple bands in the presence of phos-tag depending on differential phosphorylation levels, with phosphorylated proteins run migrate slower.
(§2) Immunoblotting was performed using standard protocol. Antibodies for pYAP (S127), YAP, TAZ (V386), pCREB, CREB, pMLC2 (S19), pMLC2 (T18/S19), MST1, MST2, and Lats1 were from Cell Signaling Technology. Lats2 antibody was from Bethyl laboratories. HA-HRP, GFP, and MLC2 antibodies were from Santa Cruz biotechnology. Tubulin, HSP90 and Flag-HRP were purchased from Sigma Aldrich. PKA antibody was obtained from BD biosciences. GAPDH antibody was a gift from Dr. Yan Luo. Yki antibody was a gift from Dr. Kenneth Irvine. The phos-tag reagents were purchased from Wako Chemicals, and gels containing phos-tag and MnC12 were prepared according to manufacturer's instructions. YAP proteins can be separated into multiple bands on phos-tag gels, with the phosphorylated form of YAP proteins migrating at a slower speed.

Lats1 [5] = assay: Lats1 immunoprecipitation kinase assay with GST-YAP substrate; type: cell-based, human
Method: Cells were lysed using mild lysis buffer (50 mM HEPES at pH 7.5, 150 mM NaCl, 1 mM EDTA, 1% NP-40, 10 mM pyrophosphate, 10 mM glycerophosphate, 50 mM NaF, 1.5 mM Na3VO4, protease inhibitor cocktail [Roche], 1 mM PMSF). Cell lysates were cleared and used for immunoprecipitation. Lats1 antibody (Cell Signaling Technology) was mixed with cell lysates for 1 hr at 4° C., and then protein A agarose beads were added in for 1 hr. After four washes with lysis buffer, beads were washed once with wash buffer (40 mM HEPES, 200 mM NaCl) and once with kinase assay buffer (30 mM HEPES, 50 mM potassium acetate, 5 mM MgCl2). The immunoprecipitated Lats1 was then subjected to a kinase assay in the presence of 500 μM cold ATP, 10 μCi [γ-32P] ATP, and 1 μg of GST-YAP expressed and purified from Escherichia coli as substrate. The reaction mixtures were incubated for 30 min at 30° C., terminated with SDS sample buffer, and subjected to SDS-PAGE and immunoblotting.

YAP [6] = assay: immunofluorescence staining of YAP subcellular localization; type: cell-based, human
Method: HEK293A or MCF10A cells were seeded on coverslips. After treatment, cells were fixed with 4% paraformaldehyde-PBS for 15 min and permeabilized with 0.1% Triton X-100 in TBS. After blocking in 3% FBS in PBS for 30 min, cells were incubated with primary antibodies overnight at 4° C. After three washes with PBS, cells were incubated with Alexa Fluor 488- or 555-conjugated secondary antibodies (Invitrogen, 1:1000 dilution) for 2 h at room temperature. Slides were then washed three times and mounted. Immunofluorescence was detected using Olympus confocal microscopy. Primary antibodies used were: YAP (H-125) and YAP (63.7) from Santa Cruz, HA from Covance, β-catenin from BD biosciences. Phalloidin alexa 488 was used to stain actin filaments. For paraffin-embedded tissues from control or LPA receptor transgenic mammary glands, 5 μm sections were prepared and subjected for immunostaining Following deparaffinization and hydration, slides were heated in sub-boiling buffer (10 mM sodium citrate, pH 6.0) for 15 min for antigen retrieval. TAZ antibody (H-70) from Santa Cruz was used to as primary antibody.

CREB = CREB phosphorylation by immunoblotting; type: cell-based, human
Method: (§3) Immunoblotting was performed using standard protocol. Antibodies for pYAP (S127), pYAP(S381/384), pMST1/2, TAZ, pERK, ERK1/2, Lats1, MST1, pAKT (S473), pS6K, S6K were from Cell Signaling, antibodies for YAP (H-125), CTGF, Cyr61, Gq/11, G13 and 14-3-3θ were from Santa Cruz, TEAD1 antibody was from BD biosciences, pTAZ (S89) antibody was in-house raised, GAPDH antibody was a gift from Dr. Yan Luo. The phos-tag reagents were purchased from Wako Chemicals, and gels containing phos-tag were prepared according to manufacture's instructions. YAP proteins can be separated into multiple bands in the presence of phos-tag depending on differential phosphorylation levels, with phosphorylated proteins run migrate slower.
as §2, with “YAP proteins can be separated into multiple bands on phos-tag gels, with the phosphorylated form of YAP proteins migrating at a slower speed.” left out

HEK293A cells = assay: cell proliferation assay, HEK293A; type: cell-based, human; conditions: 10 μM LPA, replenished every day
Method: HEK293A cells (expressing control shRNA or YAP/TAZ shRNA, 2×10^5) in serum-free media were maintained in the presence or absence of 10 μM LPA for 1, 2 or 3 day. Cell numbers were determined daily using a cell counter (Bio-Rad). LPA was replenished every day.

Lats1 [7] = assay: Lats1 phosphorylation (S909, T1079) by immunoblotting; type: cell-based, human; conditions: HEK293A; LPA 1 μM, 1 h
Method: (§4) Cells were lysed using mild lysis buffer (50 mM HEPES at pH 7.5, 150 mM NaCl, 1 mM EDTA, 1% NP-40, 10 mM pyrophosphate, 10 mM glycerophosphate, 50 mM NaF, 1.5 mM Na3VO4, protease inhibitor cocktail [Roche], 1 mM PMSF). Cell lysates were centrifuged for 10 min at 4° C., and supernatants were used for immunoprecipitation. YAP (Bethyl Laboratories) antibody was mixed with the supernatant for 1 h, and protein A-agarose beads were added in for 1 h. Immunoprecipitates were washed four times with lysis buffer, and proteins were eluted with SDS-PAGE sample buffer. For kinase assay, MST1, Lats1 or HA-Lats2 was immunoprecipitated similarly using MST1, Lats1 (Cell Signaling) or HA (Covance) antibodies.
as §3, with “YAP proteins can be separated into multiple bands in the presence of phos-tag depending on differential phosphorylation levels, with phosphorylated proteins run migrate slower.” left out

Mst1/2 = assay: Mst kinase activity and phosphorylation in treated cells; type: cell-based, human
Method: Following immunoprecipitation, protein beads were washed once with wash buffer (40 mM HEPES, 200 mM NaCl) and once with kinase assay buffer (30 mM HEPES, 50 mM potassium acetate, 5 mM MgCl2). The immunoprecipitated Mst1 was subjected to a kinase assay in the presence of 500 μM cold ATP, 10 μCi [γ-^32P] ATP, and 1 μg of GST-Mob expressed and purified from Escherichia coli as substrate. The reaction mixtures were incubated for 30 min at 30° C., terminated with SDS sample buffer, and subjected to SDS-PAGE and autoradiography. Lats1 or HA-Lats2 kinase assays were performed similarly but using GST-YAP as substrates in the absence of [γ-^32P] ATP. The phosphorylation of GST-YAP at S127 was determined by immunoblotting using pYAP antibody.

YAP [8] = assay: YAP immunoprecipitation with TEAD1 and 14-3-3; type: cell-based, human; conditions: HEK293A
Method: as §4

CTGF = assay: expression of YAP/TAZ target gene CTGF; type: cell-based, human; conditions: HEK293A
Method: as §3
Following various treatments, cells were washed with cold phosphate-buffered saline and subjected to RNA extraction using an RNeasy Plus mini kit (Qiagen). […] Complementary DNA was then diluted and used for quantification (with β-actin gene as a control) by real-time PCR, which was performed using KAPA SYBR FAST qPCR master mix (Kapa Biosystems) and the 7300 real-time PCR system (Applied Biosystems). […]
RNA extraction, reverse transcription and real-time PCR. […] After dilution, cDNA levels were quantified by real-time PCR using KAPA SYBR FAST qPCR master mix (Kapa Biosystems) and the 7300 real-time PCR system (Applied Biosystems). […]

Compound: O=S(=O)(c1ccc2c(c1)C(=NO)c1cc(S(=O)(=O)N3CCCCC3)ccc1-2)N1CCCCC1 [C108, 2,7-bis(piperidin-1-yl-sulfonyl)-9H-fluoren-9-one oxime]
- total body weight (M14 melanoma xenograft; 100 mg/kg daily via tail-vein injection, three weeks): not affected
- growth of M14 xenograft tumors (M14 melanoma xenograft; 100 mg/kg daily via tail-vein injection, three weeks, nude mice): significantly inhibited
- apoptotic marker cleaved PARP in tumors (Western blot) (M14 melanoma xenograft; M14 tumors from treated mice): dramatic increase
- level of YAP in tumor tissues (Western blot) (M14 melanoma xenograft; M14 tumors from treated mice): lower level
- Hematoxylin and Eosin stain of tumor sections (M14 melanoma xenograft; melanoma xenografts): sparser and have lower nuclear to cytoplasimc ratio
- migration of SK-Mel-28 melanoma (SK-Mel-28 melanoma): suppressed
- M14 Melanoma cell proliferation (M14 Melanoma): inhibitory effect
- growth of EKVX xenograft tumors [1]: significantly inhibited
- migration of M14 (M14): suppressed
- YAP mRNA levels (YAP mRNA): no noticeable changes
- endogenous YAP ubiquitination (YAP [2]): dramatically increased
- migration of EKVX adenocarcinoma (EKVX adenocarcinoma): suppressed
- cell migration in wound-healing assay (M14 cells): strongly inhibited
- YAP protein in the presence of cycloheximide (YAP [3]; 10 μM C108, 12 hrs): rapidly diminished
- YAP protein levels (YAP [3]; BOCS cells, 16 hours of treatment): dramatic decrease
- concentration at which endogenous YAP protein was significantly reduced (YAP [3]; BOCs 293 cells, 12 and 24 hr of drug exposure): 2 to 3 µM
- YAP protein levels (YAP [3]; SF268 glioma, M14 melanoma and SK-Mel-28 melanoma): decreased

Compound: CNC[C@H](O)c1ccc(O)c(O)c1 [epinephrine]
- YAP phosphorylation in heart (YAP [4]): significantly increased
- YAP phosphorylation (Ser127, phos-tag), time course (YAP/TAZ): transiently increased
- mutual effect of epinephrine and LPA on YAP phosphorylation (YAP/TAZ): antagonized each other's effect
- phosphorylation of YAP (YAP/TAZ): dose-dependent phosphorylation
- Lats1 activity (Lats1 [5]): increased
- YAP localization (immunofluorescence) (YAP [6]): accumulation of cytoplasmic YAP
- phosphorylation of CREB (CREB): increased
- phosphorylation of CREB, time course (CREB): transient induction

Compound: lysophosphatidic acid [LPA]
- cell proliferation in serum free medium (HEK293A cells): strongly induced cell proliferation
- phosphorylation of YAP S381/384 (YAP/TAZ; HEK293A transfected with GFP-YAP, LPA 1 h): decreased
- YAP/TAZ dephosphorylation, time course (YAP/TAZ; HEK293A, 1 μM for indicated times): rapid YAP/TAZ dephosphorylation
- dephosphorylation of YAP/TAZ by phospholipids (YAP/TAZ; HEK293A, 100 μM lipid): strongly induced dephosphorylation
- concentration inducing complete YAP/TAZ dephosphorylation (YAP/TAZ; HEK293A, 1 h): 0.1 µM
- concentration inducing partial YAP/TAZ dephosphorylation (YAP/TAZ; HEK293A, 1 h): 0.01 µM
- YAP dephosphorylation, different doses (YAP/TAZ; HEK293A, different doses of LPA, S1P, LPC or PA for 1 h): potently induced
- mutual effect of epinephrine and LPA on YAP phosphorylation (YAP/TAZ; serum-starved U2OS, LPA, epinephrine or both, 1 h): antagonized each other's effect
- phosphorylation of Lats1 at S909 and T1079 (Lats1 [7]): decreased
- phosphorylation of MST2 at T180 (Mst1/2; HEK293A with Flag-MST2, LPA 0.2 or 1 μM, 1 h): not changed
- Mst1 kinase activity (Mst1/2; HEK293A, FBS 1% or LPA 1 μM, GST-Mob substrate): no detectable effect
- Lats1 kinase activity (Lats1 [5]; HEK293A, serum or LPA): rapidly inhibited
- YAP-14-3-3 interaction (YAP [8]): attenuated
- interaction between YAP and TEAD1 (YAP [8]): enhanced
- YAP nuclear localization (YAP [6]; HEK293A and MCF10A, 1 μM, 1 h): induced YAP nuclear localization
- time after LPA withdrawal at which YAP redistributed into cytoplasm (YAP [6]; MCF10A): 30 min
- expression of CTGF (CTGF): induced
